According to ChEMBL document CHEMBL4052588, “Design of a Biased Potent Small Molecule Inhibitor of the Bromodomain and PHD Finger-Containing (BRPF) Proteins Suitable for Cellular and in Vivo Studies” (J Med Chem, 2017):

How the values were obtained:
[1] = target: T1, Peregrin (Homo sapiens, UniProt P55201); experiment: Inhibition of human BRPF1 expressed in Escherichia coli BL21 after 1 hr by BROMOscan assay
T1 sequence (P55201 whole entry): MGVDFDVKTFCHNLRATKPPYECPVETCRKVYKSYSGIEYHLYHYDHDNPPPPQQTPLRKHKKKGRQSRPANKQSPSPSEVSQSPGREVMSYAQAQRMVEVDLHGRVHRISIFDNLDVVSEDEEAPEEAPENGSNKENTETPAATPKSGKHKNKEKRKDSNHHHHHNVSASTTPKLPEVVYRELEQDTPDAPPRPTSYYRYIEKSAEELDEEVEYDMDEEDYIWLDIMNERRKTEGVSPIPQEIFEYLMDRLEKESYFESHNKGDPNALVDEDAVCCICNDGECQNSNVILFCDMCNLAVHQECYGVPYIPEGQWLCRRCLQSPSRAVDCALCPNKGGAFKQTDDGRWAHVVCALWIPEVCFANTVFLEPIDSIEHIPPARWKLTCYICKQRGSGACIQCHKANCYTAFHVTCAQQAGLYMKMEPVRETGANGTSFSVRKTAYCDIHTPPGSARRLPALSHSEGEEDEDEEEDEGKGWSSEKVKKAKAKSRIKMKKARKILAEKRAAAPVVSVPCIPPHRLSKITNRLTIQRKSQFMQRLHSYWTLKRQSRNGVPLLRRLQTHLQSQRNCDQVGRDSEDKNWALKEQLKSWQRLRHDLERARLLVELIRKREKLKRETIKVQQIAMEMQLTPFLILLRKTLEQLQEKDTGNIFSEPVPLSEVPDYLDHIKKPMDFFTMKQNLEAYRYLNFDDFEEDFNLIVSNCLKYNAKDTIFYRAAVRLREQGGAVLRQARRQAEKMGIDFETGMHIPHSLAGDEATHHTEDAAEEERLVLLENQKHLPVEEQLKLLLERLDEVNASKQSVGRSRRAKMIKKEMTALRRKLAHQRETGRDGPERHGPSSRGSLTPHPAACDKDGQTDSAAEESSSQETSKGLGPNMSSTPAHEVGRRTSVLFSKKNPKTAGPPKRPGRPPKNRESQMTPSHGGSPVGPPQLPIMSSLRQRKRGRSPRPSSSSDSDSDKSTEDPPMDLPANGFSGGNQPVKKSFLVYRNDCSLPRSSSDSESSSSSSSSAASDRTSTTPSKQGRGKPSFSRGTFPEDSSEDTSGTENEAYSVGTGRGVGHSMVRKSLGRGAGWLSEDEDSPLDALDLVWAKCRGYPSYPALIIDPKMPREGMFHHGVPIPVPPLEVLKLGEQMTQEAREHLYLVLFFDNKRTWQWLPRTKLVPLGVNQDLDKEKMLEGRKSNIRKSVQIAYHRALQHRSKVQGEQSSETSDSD

[2] = target: T2, Bromodomain-containing protein 9 (Homo sapiens, UniProt Q9H8M2); experiment: Inhibition of human BRD9 expressed in Escherichia coli BL21 after 1 hr by BROMOscan assay
T2 sequence (Q9H8M2 whole entry): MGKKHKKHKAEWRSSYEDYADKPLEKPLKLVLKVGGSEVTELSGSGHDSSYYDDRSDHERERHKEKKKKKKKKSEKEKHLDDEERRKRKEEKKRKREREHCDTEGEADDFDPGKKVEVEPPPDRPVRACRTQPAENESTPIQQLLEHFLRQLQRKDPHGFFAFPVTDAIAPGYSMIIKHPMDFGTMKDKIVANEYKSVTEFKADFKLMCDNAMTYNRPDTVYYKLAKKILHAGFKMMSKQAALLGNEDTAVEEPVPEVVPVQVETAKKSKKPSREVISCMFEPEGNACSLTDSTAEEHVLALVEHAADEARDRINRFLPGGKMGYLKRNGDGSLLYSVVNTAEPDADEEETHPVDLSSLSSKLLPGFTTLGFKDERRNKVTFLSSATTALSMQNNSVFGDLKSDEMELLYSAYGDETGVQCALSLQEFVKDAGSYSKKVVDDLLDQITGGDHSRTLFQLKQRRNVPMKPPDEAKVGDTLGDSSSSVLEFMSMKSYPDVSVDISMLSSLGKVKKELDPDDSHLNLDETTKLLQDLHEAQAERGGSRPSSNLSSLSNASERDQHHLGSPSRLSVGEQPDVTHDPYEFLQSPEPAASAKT

[3] = target: T3, Bromodomain-containing protein 1 (Homo sapiens, UniProt O95696); experiment: Inhibition of human BRPF2-BRD1 expressed in Escherichia coli BL21 after 1 hr by BROMOscan assay
T3 sequence (O95696 whole entry): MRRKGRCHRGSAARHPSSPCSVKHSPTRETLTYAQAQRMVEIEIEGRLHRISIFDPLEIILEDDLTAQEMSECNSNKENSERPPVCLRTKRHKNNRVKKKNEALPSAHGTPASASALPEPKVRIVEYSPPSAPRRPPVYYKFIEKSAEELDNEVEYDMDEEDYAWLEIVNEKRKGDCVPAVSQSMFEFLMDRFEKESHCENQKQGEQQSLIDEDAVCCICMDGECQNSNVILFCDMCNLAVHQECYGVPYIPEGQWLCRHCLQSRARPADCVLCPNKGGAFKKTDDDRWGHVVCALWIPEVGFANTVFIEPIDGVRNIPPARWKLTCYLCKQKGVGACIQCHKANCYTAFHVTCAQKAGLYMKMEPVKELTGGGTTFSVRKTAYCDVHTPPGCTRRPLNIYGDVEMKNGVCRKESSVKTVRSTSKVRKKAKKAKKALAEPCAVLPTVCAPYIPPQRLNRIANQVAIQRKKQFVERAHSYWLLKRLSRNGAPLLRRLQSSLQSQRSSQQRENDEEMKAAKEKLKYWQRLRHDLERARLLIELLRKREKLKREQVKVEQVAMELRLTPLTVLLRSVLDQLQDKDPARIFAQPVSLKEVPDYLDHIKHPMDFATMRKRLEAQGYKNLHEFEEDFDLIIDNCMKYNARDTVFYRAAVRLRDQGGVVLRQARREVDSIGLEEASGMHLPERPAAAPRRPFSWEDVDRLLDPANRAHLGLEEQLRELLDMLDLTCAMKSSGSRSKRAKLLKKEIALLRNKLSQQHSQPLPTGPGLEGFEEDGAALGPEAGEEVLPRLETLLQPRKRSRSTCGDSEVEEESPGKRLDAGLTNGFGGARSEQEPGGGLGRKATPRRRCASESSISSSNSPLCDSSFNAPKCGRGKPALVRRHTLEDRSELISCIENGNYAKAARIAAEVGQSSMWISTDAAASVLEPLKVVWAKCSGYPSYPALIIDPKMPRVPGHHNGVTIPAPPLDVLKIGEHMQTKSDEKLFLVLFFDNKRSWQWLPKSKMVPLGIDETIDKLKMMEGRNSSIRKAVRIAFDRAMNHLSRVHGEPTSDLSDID

[4] = target: Bromodomain-containing protein 4 (Homo sapiens, UniProt O60885); experiment: Inhibition of human BRD4-BD1 expressed in Escherichia coli BL21 after 1 hr by BROMOscan assay

IC50 [1] [nM] | IC50 [2] [nM] | IC50 [3] [nM] | IC50 [4] [nM] | Compound
60 | 890 | 1800 | 17000 | COc1cc2c(cc1NS(=O)(=O)c1ccc(C#N)cc1)c(C)cc(=O)n2C
> 100000 | > 100000 | > 100000 | > 100000 | CCc1cc2cc(NS(=O)(=O)c3ccc(C#N)cc3)ccc2n(CC)c1=O
220 | 420 | 2600 | 4600 | COc1ccccc1C(=O)Nc1cc2cc(C)c(=O)n(C)c2cc1N1CCCC1
7.9 | 310 | 48 | 4500 | Cc1cc2cc(NS(=O)(=O)c3ccc(C#N)cc3)ccc2n(C)c1=O

Compound | IC50 [1] [nM] | IC50 [2] [nM] | IC50 [3] [nM] | IC50 [4] [nM]
Cn1c(=O)ccc2cc(NS(=O)(=O)c3ccc(C#N)c(Cl)c3)ccc21 | 62 | 2500 | 450 | 7200
